How the values were obtained:
factor VII (F7) = settings: mouse liver; cited from earlier work
[1] = Evaluation of lipid polymorphism by 31P NMR spectroscopy; format: physicochemical; settings: DOPC/lipid=50/50 (mol %), hydrated with PBS(−), 25° C.
Protocol: The spectrum of a lipid membrane by ^31P NMR spectroscopy differs depending on the phase. Therefore, analysis of a lipid membrane composed of DOPC and a lipid under evaluation was performed by ^31P NMR spectroscopy, the polymorphism of the phase state of the lipid membrane was evaluated from the obtained spectrum, and the ability of the lipid under evaluation to destroy the DOPC membrane was evaluated.
Specifically, DOPC and a lipid under evaluation (DOPE or TOT-10) were mixed at a molar ratio of 1:1 (16 μmol of total lipid) and were dissolved in 300 μL of chloroform, and then the solvent was removed by a distillation apparatus (rotovap) to form a lipid membrane. The resulting lipid membrane was hydrated with 500 μL of PBS(−) at 60° C. to obtain a sample for measurement.
Next, the sample was transferred to an NMR tube, and a proton-decoupled ^31P NMR spectrum was obtained using an ECA500 apparatus manufactured by JEOL Ltd. Acquisition parameters included a […], a spectral width of 280 kHz (for ECX 400P) with 32,768 data points, and an interpulse delay time of 1 second. The temperature was controlled at 25° C. Prior to Fourier transform, exponential multiplication corresponding to a line broadening of 50 Hz was applied to the free induction decay. Chemical shifts were referenced to 85% phosphoric acid (H3PO4) as an external standard. […]

Compound	ED50 in factor VII (F7) knockdown (factor VII (F7)) [mg siRNA/kg]	phase of lipid membrane seen in 31P NMR spectrum [1]
CCCCC/C=C\C/C=C\CCCCCCCCOC1(OCCCCCCCC/C=C\C/C=C\CCCCC)CCN(C)CC1 [YSK05]	0.06	
CCCCCCCC/C=C\CCCCCCCC(=O)OCC(COC(=O)CCCCCCC/C=C\CCCCCCCC)(COC(=O)CCCCCCC/C=C\CCCCCCCC)NC(=O)CCC[N+](C)(C)CC(=O)[O-] [TOT-10, 2-((4-((1,3-bis(oleoyloxy)-2-((oleoyloxy)methyl)propan-2-yl)amino)-4-oxobutyl)dimethylammonio)acetate]		a peak derived from the hexagonal phase or isotropic phase was observed instead of a peak derived from the lamellar phase
CCCCCCCC/C=C\CCCCCCCC(=O)OC[C@H](COP(=O)(O)OCCN)OC(=O)CCCCCCC/C=C\CCCCCCCC [DOPE, 1,2-dioleoyl-sn-glycero-3-phosphoethanolamine]		a peak derived from the lamellar phase was observed
CCCCC/C=C\C/C=C\CCCCCCCCC(CCCCCCCC/C=C\C/C=C\CCCCC)OC(=O)CCCN(C)C [DLin-MC3-DMA]	0.005	

— patent US20260048021A1, “NEUTRAL LIPID AND LIPID NANOPARTICLE” (National University Corporation Hokkaido University, priority 2022, published 2026)
